Experimental data: patent publication US20120015809A1 (priority 2009, published 2012)
Structures can show the parent of a compound that is named as a salt. Where two headings read alike, the source gives them in different places.

Tested on: Ralstonia solanacearum (race 1, biovar 1; tomato strain Rs5)
Conditions: 72 h; for Number of colonies: mean ± standard error (n = 6)

## [H]/N=C(/N)N[C@H]1[C@H](O)[C@@H](O)[C@H](O[C@@H]2O[C@@H](C)[C@](O)(C=O)[C@H]2O[C@@H]2O[C@@H](CO)[C@H](O)[C@@H](O)[C@@H]2NC)[C@@H](N/C(N)=N\[H])[C@@H]1O [Streptomycin, streptomycin sulfate]
200 mg kg^−1 soil
  Mortality (%): 0.9%
  Number of colonies: 256000 ± 16500
400 mg kg^−1 soil
  Mortality (%): 11.9%
  Number of colonies: 227000 ± 78100
800 mg kg^−1 soil
  Mortality (%): 21.6%
  Number of colonies: 204000 ± 82900
800 mg kg^−1 soil, listed as streptomycin
  Mortality (%): 21%
1500 mg kg^−1 soil
  Mortality (%): 75.3%
  Number of colonies: 63800 ± 42300
